# Laboratory results: patent US9980928B2, “Hydroxy aliphatic substituted phenyl aminoalkyl ether derivatives” (PROUS INSTITUTE FOR BIOMEDICAL RESEARCH, S.A., priority 2012, dated 2018)
# How the values were obtained:
# mice [1] = experiment: Tail suspension assay in mice; type: in vivo
# Protocol: Another method of measuring antidepressant activity that may be used to evaluate the compounds of the present invention is the tail suspension test in mice described in Vogel, H. G. and Vogel, W. H. (Eds.) Drug Discovery and Evaluation, Springer-Verlag Berlin Heidelberg, 1997) pp. 304-3059). The mouse tail suspension assay was conducted 60 minutes after dosing. The duration of immobility was recorded for a period of 5 minutes after tail suspension was initiated, and reduction in the duration of immobility by ≥50% relative to the control group indicated antidepressant activity. Statistical analysis was also performed by using one-way ANOVA followed by Dunnett's test to compare the data of test compound-treated and vehicle control groups. Significance was considered to be P<0.05.
# [2] = target: T1, norepinephrine (NE) transporter (Homo sapiens, UniProt P23975); experiment: Norepinephrine transporter binding radioligand inhibition ([3H]-nisoxetine); settings: concentration 10 μM
# T1 construct: expressed in transfected cells; host or cells: CHO cells
# T1 sequence (P23975 whole entry): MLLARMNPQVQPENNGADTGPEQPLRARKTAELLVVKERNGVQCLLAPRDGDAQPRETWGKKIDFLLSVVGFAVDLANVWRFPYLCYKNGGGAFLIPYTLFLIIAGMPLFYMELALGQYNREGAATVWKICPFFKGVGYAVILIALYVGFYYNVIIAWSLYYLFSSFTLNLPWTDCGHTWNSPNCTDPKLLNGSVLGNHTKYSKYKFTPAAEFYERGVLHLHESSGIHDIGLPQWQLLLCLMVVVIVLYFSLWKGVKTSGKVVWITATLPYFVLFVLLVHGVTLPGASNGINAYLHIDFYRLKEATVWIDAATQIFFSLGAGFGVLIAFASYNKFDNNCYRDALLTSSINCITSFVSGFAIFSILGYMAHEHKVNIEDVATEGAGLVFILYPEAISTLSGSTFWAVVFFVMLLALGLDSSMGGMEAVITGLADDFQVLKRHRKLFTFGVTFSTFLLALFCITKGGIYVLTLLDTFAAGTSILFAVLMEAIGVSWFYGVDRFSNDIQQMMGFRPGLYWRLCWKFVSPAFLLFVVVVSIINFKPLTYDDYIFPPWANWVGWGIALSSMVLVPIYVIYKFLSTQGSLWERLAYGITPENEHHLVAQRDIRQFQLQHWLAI
# Protocol: The norepinephrine (NE) transporter removes NE from the synaptic cleft. The NE transporter terminates the effects of […], enabling its reuse by the presynaptic neuron. The in vitro binding of the compounds of the invention to the NE transporter and the percent inhibition of control-specific binding ([^3H]-nisoxetine in human recombinant CHO cells) is determined following the method described in Pacholczyk et al., (Nature 1991, 350(6316): 350-4.
# serotonin transporter = target: T2, serotonin transporter (Homo sapiens, UniProt P31645); experiment: Serotonin transporter binding radioligand inhibition ([3H]-imipramine); settings: concentration 10 μM; read-out: serotonin binding inhibition
# T2 construct: expressed in transfected cells; host or cells: CHO cells
# T2 sequence (P31645 whole entry): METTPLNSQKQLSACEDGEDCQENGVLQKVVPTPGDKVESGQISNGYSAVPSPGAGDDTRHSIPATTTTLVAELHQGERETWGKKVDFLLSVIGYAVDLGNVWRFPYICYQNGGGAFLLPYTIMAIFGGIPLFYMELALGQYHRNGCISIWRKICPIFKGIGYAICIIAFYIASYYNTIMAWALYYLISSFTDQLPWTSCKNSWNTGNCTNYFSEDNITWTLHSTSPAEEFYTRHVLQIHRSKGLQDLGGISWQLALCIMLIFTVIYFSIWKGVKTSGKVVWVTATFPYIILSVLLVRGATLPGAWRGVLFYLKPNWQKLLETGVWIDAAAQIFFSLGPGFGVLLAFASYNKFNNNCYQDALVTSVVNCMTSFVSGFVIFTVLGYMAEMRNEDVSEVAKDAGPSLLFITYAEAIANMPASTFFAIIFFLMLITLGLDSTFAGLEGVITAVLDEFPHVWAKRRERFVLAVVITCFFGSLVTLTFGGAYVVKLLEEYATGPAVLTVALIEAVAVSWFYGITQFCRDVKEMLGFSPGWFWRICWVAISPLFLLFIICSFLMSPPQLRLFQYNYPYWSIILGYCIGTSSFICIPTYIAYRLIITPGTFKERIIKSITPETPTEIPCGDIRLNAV
# Excerpt: The serotonin transporter removes serotonin from the synaptic deft. The serotonin transporter terminates the effects of […], enabling its reuse by the presynaptic neuron.
# uptake of norepinephrine = uptake of norepinephrine (Homo sapiens, UniProt P23975); experiment: Uptake inhibition of norepinephrine, cellular assay; type: cell-based; settings: read-out: Norepinephrine reuptake inhibition (IC50 μM)
# uptake of norepinephrine, sequence (P23975 whole entry): as the sequence (P23975 whole entry) above
# Protocol: (§1) The effect of the compounds of the present invention as inhibitors of the uptake of norepinephrine and serotonin in cellular assays at concentrations that range from […] to 1 nM is determined following the methods described in Galli, A. et al. J Exp Biol 1995, 198(Pt. 10): 2197-212 and Gu, H. et al. J Biol Chem. 1994, 269(10):7124-30.
# uptake of serotonin = uptake of serotonin (Homo sapiens, UniProt P31645); experiment: Uptake inhibition of serotonin, cellular assay; type: cell-based; settings: read-out: Serotonin reuptake inhibition (IC50 μM)
# uptake of serotonin, sequence (P31645 whole entry): as the sequence (P31645 whole entry) above
# Protocol: as §1
# mice [3] = experiment: Mouse formalin assay (analgesic activity); type: in vivo
# Protocol: The analgesic activity of the compounds of the present invention is determined making use of the mouse formalin test described in Hunskaar, S. J Neurosci Methods 1985, 14(1): 69-76. The hind paw licking time was measured at 5-minute intervals for 30 minutes following subplantar injection of formalin (0.02 mL, 2%). Statistical analysis using one-way ANOVA followed by Dunnett's test was applied for comparison between the test substance-treated and vehicle control groups. P<0.05 was considered significant.
# CHO cells = experiment: In vitro MTT toxicity screen; type: cell-based, Chinese hamster; settings: 10 μM, compared to positive control group (10% DMSO)
# Protocol: The toxicity of the compounds of the present invention at a concentration of 10 μM has been explored using the tetrazolium salt (MTT) method in CHO cells. The MTT method involving conversion of MTT to colored formazan by cells serves as an indirect measurement of cell growth/cell kill, as reported by several groups (Paimela, T. et al. Mol Vis 2012; 18: 1189-96; Hansen, M. B. et al. J Immunol Methods 1989, 119(2): 203-10).
# In the MTT assay, cytotoxicity is correlated with the color of MTT and is measured with a spectrophotometer at the wavelength of 570 nm. Briefly, fresh MTT solution (10 mg/mL in 1×PBS) was added (1:20 volume of medium) and the cells were incubated for 1.5 hours. The cells were lysed and purple formazan was dissolved into the solution by overnight incubation with MTT lysis buffer (20% SDS, 50% N,N-dimethylformamide, 2% acetic acid, 25 mM HCl; the volume of medium+volume of MTT salt solution).
# [4] = test system: phosphorylation of CREB in SN56 and T48 cell lines; experiment: CREB phosphorylation in SN56 and T48 cell lines (western blot); type: cell-based, mouse; settings: both cell lines (SN56 and T48)
# Protocol: The purpose of the study was to assess the acute biochemical neuronal changes in neurotrophin and synaptic plasticity signaling in vitro after the incubation in SN56 (fusion of mouse septal area cells and neuroblastoma cells with no TRKB expression) and T48 (SN56 stable transfected to express TrkB) cell lines the Examples 3 and 4. These changes were studied with a western blot assessment of Erk, Akt, PLC, Trkb, BDNF and CREB (cAMP response element-binding protein) phosphorilation assays.
# Proteins were denatured in 62.5 mM Tris-HCl (pH 6.8), 2% (w/v) SDS, 10% glycerol, 140 mM β-mercaptoethanol and 0.1% (w/v) bromophenol blue, heated at 100° C. for 5 min (except for VGLUT1 blotting: 10 minutes 60° C.) and resolved in denaturing polyacrylamide gels (8% acrylamide); proteins were transferred to a nitrocellulose membrane), and washed twice in Tris-buffered saline containing 0.1% Tween-20 (TBS-T). […]
# After primary antibody incubation, membranes were washed with TBS-T and incubated for 1 h at room temperature with the appropriated horseradish peroxidase-conjugated secondary antibody (Promega, Madison, Wis., USA), and the reaction was finally visualized with the Western Blotting Luminol Reagent (Santa Cruz Biotechnology, Santa Cruz, Calif., USA). Western blot replicates were scanned and quantified using a computer-assisted densitometric analysis. […]
# mice [5] = experiment: Novel object recognition test (acute); type: in vivo; settings: 3 mg/kg i.p., same experimental conditions
# Excerpt: The novel object recognition task is used to evaluate cognition, particularly memory recognition, in rodent models of CNS disorders. This test is based on the spontaneous tendency of rodents to spend more time exploring a novel object than a familiar one. The choice to explore the novel object reflects the use of learning and memory recognition. The novel object recognition test provides a measure of activity in a novel environment allowing tests for emotional reactivity and also for novel object recognition, a cognitive domain that depends on hippocampal functional integrity. Animals were habituated to the presence of two identical objects (LEGO® pieces) during a single session of 5 minutes (training) and sniffing (exploration of an object was defined as pointing the nose to the object at a distance of <1 cm and/or touching it with the nose). Mice were injected with saline or with the compound to be tested and returned to their home cages. At 24 hours the animals were introduced in the same open field again with the same two items (familiarization), and again exploration in each of them for 5 minutes was registered. One hour later, the mice were retested in the open field for 3 minutes, but this time with one of the “familiar” objects replaced by a new one (test). To analyze cognitive performance, a discrimination index was calculated as the difference in time exploring the novel and familiar object, expressed as the ratio of the total time spent exploring both objects, which made it possible to adjust for any differences in total exploration time. This test is useful for assessing impaired cognitive ability in transgenic strains of mice and evaluating novel chemical entities for their effect on cognition (Zhang, R. J Alzheimers Dis 2012, 31(4): 801-12). […] Neuroplasticity 2007, 26496).
# [6] = target: T3, Human dopamine transporters (Homo sapiens, UniProt Q01959); experiment: Binding to the dopamine transporter ([125I]-RTI-55); settings: reference compound; read-out: IC50, [125I]-RTI-55 binding to DAT
# T3 construct: expressed in transfected cells; host or cells: CHO-K1 cells (membranes)
# T3 sequence (Q01959 whole entry): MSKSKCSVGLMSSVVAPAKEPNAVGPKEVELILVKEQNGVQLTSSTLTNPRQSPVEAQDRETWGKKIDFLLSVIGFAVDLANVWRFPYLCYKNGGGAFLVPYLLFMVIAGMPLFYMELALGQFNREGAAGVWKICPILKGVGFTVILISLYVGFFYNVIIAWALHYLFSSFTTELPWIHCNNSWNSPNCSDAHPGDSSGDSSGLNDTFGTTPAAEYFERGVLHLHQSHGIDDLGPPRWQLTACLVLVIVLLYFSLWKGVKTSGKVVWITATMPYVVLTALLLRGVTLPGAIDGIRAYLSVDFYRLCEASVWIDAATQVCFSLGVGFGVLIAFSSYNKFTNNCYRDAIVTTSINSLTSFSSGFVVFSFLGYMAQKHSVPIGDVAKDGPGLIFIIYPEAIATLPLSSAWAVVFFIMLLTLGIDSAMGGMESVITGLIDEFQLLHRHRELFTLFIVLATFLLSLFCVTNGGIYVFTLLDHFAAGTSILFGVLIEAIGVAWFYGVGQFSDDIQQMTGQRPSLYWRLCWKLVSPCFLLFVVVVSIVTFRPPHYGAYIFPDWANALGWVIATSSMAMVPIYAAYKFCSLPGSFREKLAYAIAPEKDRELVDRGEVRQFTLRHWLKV
# Protocol: Human dopamine transporters expressed in CHO—K1 cells are used in modified Tris-HCl buffer at pH 7.4. […] Non-specific binding is estimated in the presence of […] nomifensine.
# [7] = 30 mg/kg oral, 60 minutes after dosing
SMILES,antidepressant effect (duration of immobility) (mice [1]; [7]),inhibition at 10 µM [2],inhibition at 10 µM (serotonin transporter),IC50 (uptake of norepinephrine),IC50 (uptake of serotonin),antidepressant effect (duration of immobility) (mice [1]; 90 mg/kg p.o.),analgesic activity following formalin challenge (hind paw licking time) (mice [3]; 90 mg/kg oral),cell viability (MTT) (CHO cells),phosphorylation of CREB [4],analgesic activity following formalin challenge (hind paw licking time) (mice [3]; 30 mg/kg oral),melting point,cognitive improvement (mice [5]),IC50 [6]
"CNCCCN1c2ccccc2CCc2ccccc21 [Desipramine, reference compound]",significant effect,,,,,,,,,,,,
"CNCC[C@@H](Oc1ccc(CCO)cc1)c1ccccc1.Cl [Example 3, (R)-2-[4-[3-(Methylamino)-1-phenylpropoxy]phenyl]ethanol hydrochloride]",,65 to 90%,68 to 82%,1.6 to 2.9 µM,2.5 to 4.8 µM,active,active,100%,increase significantly,,,,
"CNCC[C@H](Oc1ccc(CCO)cc1)c1ccccc1.Cl [Example 4, (S)-2-[4-[3-(Methylamino)-1-phenylpropoxy]phenyl]ethanol hydrochloride]",significant activity,65 to 90%,68 to 82%,1.6 to 2.9 µM,2.5 to 4.8 µM,active,active,100%,increase significantly,active,,,
"Cl.NCCC(Oc1ccc(CCO)cc1)c1ccccc1 (stereo not drawn) [Example 12, 2-[4-(3-Amino-1-phenylpropoxy)phenyl]ethanol hydrochloride]",,79%,78%,2.7 µM,1 µM,,,,,,68 to 70 °C,,
"Cl.OCCc1ccc(OCC2CNCCO2)cc1 (stereo not drawn) [Example 18, 2-[4-(Morpholin-2-ylmethoxy)phenyl]ethanol hydrochloride]",,65 to 90%,68 to 82%,1.6 to 2.9 µM,2.5 to 4.8 µM,,demonstrated analgesic activity,100%,,,163 to 169 °C,,
"C#CCN[C@@H]1CCc2ccccc21 [rasagiline, reference compound]",,,,,,,,,,,,absence of cognitive improvement,
"COC(=O)[C@H]1[C@H]2C[C@@H]3c4[nH]c5cc(OC)ccc5c4CCN3C[C@H]2C[C@@H](OC(=O)c2cc(OC)c(OC)c(OC)c2)[C@@H]1OC [reserpine, reference compound]",,,,,,,,,,,,,1300 nM
